26 molecules from publication PMC8320897, “Inhibition of PI3K and MAPK pathways along with KIT inhibitors as a strategy to overcome drug resistance in gastrointestinal stromal tumors” (PLoS ONE, 2021) can be followed below.

One assay concerns GIST882. Briefly: Cell proliferation assay (Cell Counting Kit-8), drug screen. Format: cell-based. Conditions: read-out: IC50 GIST882.
A further assay relates to GIST-T1. The assay is described as above. Format: cell-based, human. As to conditions: read-out: IC50 GIST-T1.
In a further assay the test system is GIST-T1/670. Briefly: Cell proliferation assay (Cell Counting Kit-8). Format: cell-based, human. As to conditions: read-out: IC50 T1/670.
Another assay concerns GIST-T1/10R. Briefly: Cell proliferation assay (Cell Counting Kit-8). Format: cell-based, human. As to conditions: read-out: IC50 T1-10R.
Assay [1] relates to imatinib sensitive cell lines. Briefly: Cell proliferation assay. Format: cell-based.
The test system of the next assay is MCF7. Briefly: Cell proliferation assay, control cell line. Conditions: Homo sapiens, MCF7, 72 h, read-out: IC50 MCF7.
The subject of the next assay is MRC5. Briefly: Cell proliferation assay, control cell line. As to conditions: Homo sapiens, MRC5, 72 h, read-out: IC50 MRC5.
[2] abbreviates: cell viability after 72 hours of treatment.
Where [3] appears, read: Homo sapiens, GIST882, cell viability after 72 hours of treatment.
[4] abbreviates: Homo sapiens, GISTT1, cell viability after 72 hours of treatment.

Where two headings read alike, the source gives them in different places.

For the molecule `Nc1ncnc2c1c(I)cn2[C@@H]1O[C@H](CO)[C@@H](O)[C@H]1O` [5-iodotubercidin], the IC50 in the assay with GIST882 (setting [2]), in the assay with GIST-T1 (setting [2]), in the assay on GIST-T1/670 (setting [2]) and with GIST-T1/10R (setting [2]) was ≥ 5 µM throughout.
`COc1c(C[C@@H](C)OC(=O)Oc2ccc(O)cc2)c2c3c(C[C@@H](C)OC(=O)c4ccccc4)c(OC)c(=O)c4c(O)cc(OC)c(c5c(OC)cc(O)c(c1=O)c52)c43` [Calphostin C]: the IC50 is 0.1 µM in the assay with GIST882 (Homo sapiens, GIST882, 72 h); 0.1 µM in the assay on GIST-T1 (Homo sapiens, GISTT1, 72 h); > 1 µM in the assay with GIST-T1/670 (Homo sapiens, GISTT1, 72 h); > 1 µM in the assay on GIST-T1/10R (Homo sapiens, GISTT1, 72 h). Also, in assay [1] (72 h), the “concentration that inhibited the proliferation of imatinib sensitive cell lines” value is < 0.5 µM.
Take `c1cc(-c2cnn3cc(-c4ccc(OCCN5CCCCC5)cc4)cnc23)ccn1` [Compound C]: the IC50 was < 0.1 µM in the assay on GIST882 (setting [2]), < 0.1 µM in the assay with GIST-T1 (setting [2]), 5 µM with GIST-T1/670 (setting [2]) and 5 µM with GIST-T1/10R (setting [2]). For the same molecule, in assay [1] (72 h), the “concentration that inhibited the proliferation of imatinib sensitive cell lines” value was < 0.5 µM.
In the case of `Cc1nc(Nc2ncc(C(=O)Nc3c(C)cccc3Cl)s2)cc(N2CCN(CCO)CC2)n1` [Dasatinib], the IC50 with GIST882 (setting [3]) was < 0.1 µM; in the assay on GIST-T1 (setting [4]), 0.025 µM; in the assay with GIST-T1/670 (setting [4]), > 10 µM; in the assay with GIST-T1/10R (setting [4]), > 10 µM.
For the molecule `C[C@H]1O[C@@H](O[C@H]2[C@@H](O)C[C@H](O[C@H]3[C@@H](O)C[C@H](O[C@H]4CC[C@@]5(C)[C@H](CC[C@@H]6[C@@H]5CC[C@]5(C)[C@@H](C7=CC(=O)OC7)CC[C@]65O)C4)O[C@@H]3C)O[C@@H]2C)C[C@H](O)[C@@H]1O` [Digitoxin], the IC50 was < 0.5 µM with GIST882 (setting [3]), < 0.1 µM in the assay with GIST-T1 (setting [4]), 0.5 µM in the assay on GIST-T1/670 (setting [4]) and 0.5 µM in the assay on GIST-T1/10R (setting [4]). Besides, the “concentration that inhibited the proliferation of imatinib sensitive cell lines” value in assay [1] was < 0.5 µM.
`C#Cc1cccc(Nc2ncnc3cc(OCCOC)c(OCCOC)cc23)c1` [Erlotinib]: the IC50 in the assay on GIST882 (setting [3]), in the assay on GIST-T1 (setting [4]), in the assay on GIST-T1/670 (setting [4]) and in the assay with GIST-T1/10R (setting [4]) was > 10 µM throughout.
For the molecule `Cc1cc([N+](=O)[O-])ccc1NS(=O)(=O)c1cc(Cl)ccc1Cl` [FH535], the IC50 in the assay with GIST882 (setting [2]) is > 30 µM; with GIST-T1 (setting [2]), > 30 µM; with GIST-T1/670 (setting [2]), > 15 µM; in the assay on GIST-T1/10R (setting [2]), > 15 µM.
With `O=S(=O)(c1cccc2cnccc12)N1CCCNCC1` [Fasudil], the IC50 in the assay on GIST882 (setting [3]), with GIST-T1 (setting [4]), in the assay with GIST-T1/670 (setting [4]) and with GIST-T1/10R (setting [4]) was ~70 µM throughout.
`O=c1c(-c2ccc(O)cc2)coc2cc(O)cc(O)c12` [Genistein]: the IC50 with GIST882 (setting [3]), in the assay with GIST-T1 (setting [4]), with GIST-T1/670 (setting [4]) and with GIST-T1/10R (setting [4]) was > 50 µM each time.
As to `O=S(=O)(NCCNC/C=C/c1ccc(Br)cc1)c1cccc2cnccc12` [H-89], the IC50 with GIST882 (setting [2]) and in the assay with GIST-T1 (setting [2]) was > 25 µM in each case.
Regarding `O=C1Nc2ccccc2/C1=C1/Nc2ccccc2/C1=N\O` [Indirubin-3’-Monoxime], the IC50 in the assay on GIST882 (setting [2]), in the assay on GIST-T1 (setting [2]), in the assay on GIST-T1/670 (setting [2]) and in the assay with GIST-T1/10R (setting [2]) was > 10 µM throughout.
Turning to `CCc1c2c(nc3ccc(OC(=O)N4CCC(N5CCCCC5)CC4)cc13)-c1cc3c(c(=O)n1C2)COC(=O)[C@]3(O)CC` [Irinotecan], the IC50 in the assay on GIST882 (setting [3]) was 0.5 µM; in the assay on GIST-T1 (setting [4]), 0.5 µM; in the assay on GIST-T1/670 (setting [4]), 5 µM; with MCF7 it was 5 µM; with GIST-T1/10R (setting [4]) it was 5 µM; in the assay with MRC5, 5 µM. Also, the “concentration that inhibited the proliferation of imatinib sensitive cell lines” value in assay [1] (72 h) is < 0.5 µM.
For the molecule `CC(C)(C)c1nc2c3cc[nH]c(=O)c3c3cc(F)ccc3c2[nH]1` [JAK Inhibitor 1], the IC50 with GIST882 (setting [2]) was > 10 µM; with GIST-T1 (setting [2]) it was > 10 µM; in the assay with GIST-T1/670 (setting [2]), > 15 µM; in the assay on GIST-T1/10R (setting [2]), > 15 µM.
For `O=C1C=CC(=O)c2c(O)cccc21` [Juglone], the IC50 in the assay on GIST882 (setting [3]), in the assay on GIST-T1 (setting [4]), in the assay with GIST-T1/670 (setting [4]) and with GIST-T1/10R (setting [4]) was 5 µM throughout.
As to `O=C(O)c1cc(N(Cc2ccccc2O)Cc2cc(O)ccc2O)ccc1O` [Lavendustin A], the IC50 is > 100 µM in the assay on GIST882 (setting [3]), > 100 µM in the assay with GIST-T1 (setting [4]), > 15 µM with GIST-T1/670 (setting [4]) and > 15 µM in the assay with GIST-T1/10R (setting [4]).
On to `Cc1ccc(NC(=O)c2ccc(CN3CCN(C)CC3)cc2)cc1Nc1nc(-c2cccnc2)cs1` [Masatinib], for which the IC50 in the assay with GIST882 (setting [3]) was 0.05 µM; in the assay on GIST-T1 (setting [4]), 0.025 µM; in the assay on GIST-T1/670 (setting [4]) it was 5 µM; in the assay on GIST-T1/10R (setting [4]), 5 µM.
On to `Cc1cn(-c2cc(NC(=O)c3ccc(C)c(Nc4nccc(-c5cccnc5)n4)c3)cc(C(F)(F)F)c2)cn1` [Nilotinib], for which the IC50 in the assay with GIST882 (setting [3]) was 0.025 µM; with GIST-T1 (setting [4]), 0.025 µM; with GIST-T1/670 (setting [4]), > 10 µM; in the assay with GIST-T1/10R (setting [4]), > 10 µM.
As for `Cc1ccc(Nc2nccc(N(C)c3ccc4c(C)n(C)nc4c3)n2)cc1S(N)(=O)=O` [Pazopanib], the IC50 in the assay with GIST882 (setting [3]) is 0.5 µM; in the assay on GIST-T1 (setting [4]), 0.025 µM; with GIST-T1/670 (setting [4]), > 5 µM; with MCF7, > 10 µM; with GIST-T1/10R (setting [4]), > 1 µM; with MRC5 it was > 10 µM.
With `Nc1ncnc2c1nc(Br)n2C1OC2COP(O)(=S)OC2C1O` (stereo not drawn) [Rps-Br-cAMPS], the IC50 in the assay with GIST882 (setting [2]) and with GIST-T1 (setting [2]) was > 100 µM throughout.
Regarding `Oc1c2ccccc2c2c3c(cccc13)N=N2` [SP600125], the IC50 in the assay with GIST882 (setting [3]), in the assay with GIST-T1 (setting [4]), in the assay with GIST-T1/670 (setting [4]) and in the assay on GIST-T1/10R (setting [4]) was 1 µM each time.
In the case of `O=C1CCc2c(ccc3ccccc23)O1` [Splitomicin], the IC50 in the assay with GIST882 (setting [3]) is 15 µM; in the assay with GIST-T1 (setting [4]), > 10 µM; in the assay with GIST-T1/670 (setting [4]), > 10 µM; in the assay with MCF7 it was > 10 µM; with GIST-T1/10R (setting [4]), > 10 µM; in the assay with MRC5, > 10 µM.
For `CO[C@H]1C[C@@H]2CC[C@@H](C)[C@@](O)(O2)C(=O)C(=O)N2CCCC[C@H]2C(=O)O[C@H]([C@H](C)C[C@@H]2CC[C@@H](OC(=O)C(C)(CO)CO)[C@H](OC)C2)CC(=O)[C@H](C)/C=C(\C)[C@@H](O)[C@@H](OC)C(=O)[C@H](C)C[C@H](C)/C=C/C=C/C=C/1C` [Temsirolimus], the IC50 in the assay on GIST882 (setting [3]), in the assay with GIST-T1 (setting [4]), in the assay with GIST-T1/670 (setting [4]) and with GIST-T1/10R (setting [4]) was > 100 µM each time.
As to `O=C1CCC(N2C(=O)c3ccccc3C2=O)C(=O)N1` (stereo not drawn) [Thalidomide], the IC50 in the assay on GIST882 (setting [3]), with GIST-T1 (setting [4]), with GIST-T1/670 (setting [4]) and in the assay on GIST-T1/10R (setting [4]) was > 100 µM each time.
For the molecule `Cc1cc(Nc2cc(N3CCN(C)CC3)nc(Sc3ccc(NC(=O)C4CC4)cc3)n2)[nH]n1` [Tozasertib], the IC50 in the assay with GIST882 (setting [3]) was 5 µM; in the assay on GIST-T1 (setting [4]), 5 µM; in the assay on GIST-T1/670 (setting [4]), > 10 µM; in the assay with MCF7 it was 5 µM; with GIST-T1/10R (setting [4]), > 10 µM; in the assay with MRC5 it was 5 µM.
For `Clc1ccc(Nc2nnc(Cc3ccncc3)c3ccccc23)cc1` [Vatalanib], the IC50 with GIST882 (setting [3]) is 1 µM; with GIST-T1 (setting [4]), 0.1 µM; in the assay with GIST-T1/670 (setting [4]) it was > 10 µM; in the assay with MCF7, > 10 µM; with GIST-T1/10R (setting [4]), > 10 µM; in the assay with MRC5 it was > 10 µM.
For Sarcatanib, the IC50 was 1 µM in the assay with GIST882 (setting [2]), 5 µM in the assay with GIST-T1 (setting [2]), > 10 µM in the assay with GIST-T1/670 (setting [2]) and > 10 µM in the assay with GIST-T1/10R (setting [2]).
